Source: patent US8859569B2, “Substituted annellated pyrimidines and use thereof” (Bayer Pharma Aktiengesellschaft, priority 2011, dated 2014)

The compounds below were run against T1, recombinant guanylate cyclase reporter cell line (Rattus norvegicus, UniProt P19686+P20595) (assay: Action on recombinant guanylate cyclase reporter cell line).
T1 construct: expressed in transfected cells
T1 sequence (P20595 1-619): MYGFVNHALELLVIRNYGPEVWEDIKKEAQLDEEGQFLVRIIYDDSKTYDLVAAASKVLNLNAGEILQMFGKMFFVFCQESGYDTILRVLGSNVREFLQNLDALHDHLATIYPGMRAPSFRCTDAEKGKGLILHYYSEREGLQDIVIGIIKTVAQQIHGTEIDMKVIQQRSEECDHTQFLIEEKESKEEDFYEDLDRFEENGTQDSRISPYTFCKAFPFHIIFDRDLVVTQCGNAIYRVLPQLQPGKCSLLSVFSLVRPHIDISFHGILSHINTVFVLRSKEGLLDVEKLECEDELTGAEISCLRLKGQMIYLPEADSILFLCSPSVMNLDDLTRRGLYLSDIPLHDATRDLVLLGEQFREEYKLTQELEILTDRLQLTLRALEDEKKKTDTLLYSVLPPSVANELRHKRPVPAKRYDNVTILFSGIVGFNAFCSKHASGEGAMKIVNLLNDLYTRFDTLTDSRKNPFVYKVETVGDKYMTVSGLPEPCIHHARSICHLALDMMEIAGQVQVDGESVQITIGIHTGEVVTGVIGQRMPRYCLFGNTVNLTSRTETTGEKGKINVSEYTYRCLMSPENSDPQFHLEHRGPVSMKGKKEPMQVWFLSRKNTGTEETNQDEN
T1 sequence (P19686 1-690): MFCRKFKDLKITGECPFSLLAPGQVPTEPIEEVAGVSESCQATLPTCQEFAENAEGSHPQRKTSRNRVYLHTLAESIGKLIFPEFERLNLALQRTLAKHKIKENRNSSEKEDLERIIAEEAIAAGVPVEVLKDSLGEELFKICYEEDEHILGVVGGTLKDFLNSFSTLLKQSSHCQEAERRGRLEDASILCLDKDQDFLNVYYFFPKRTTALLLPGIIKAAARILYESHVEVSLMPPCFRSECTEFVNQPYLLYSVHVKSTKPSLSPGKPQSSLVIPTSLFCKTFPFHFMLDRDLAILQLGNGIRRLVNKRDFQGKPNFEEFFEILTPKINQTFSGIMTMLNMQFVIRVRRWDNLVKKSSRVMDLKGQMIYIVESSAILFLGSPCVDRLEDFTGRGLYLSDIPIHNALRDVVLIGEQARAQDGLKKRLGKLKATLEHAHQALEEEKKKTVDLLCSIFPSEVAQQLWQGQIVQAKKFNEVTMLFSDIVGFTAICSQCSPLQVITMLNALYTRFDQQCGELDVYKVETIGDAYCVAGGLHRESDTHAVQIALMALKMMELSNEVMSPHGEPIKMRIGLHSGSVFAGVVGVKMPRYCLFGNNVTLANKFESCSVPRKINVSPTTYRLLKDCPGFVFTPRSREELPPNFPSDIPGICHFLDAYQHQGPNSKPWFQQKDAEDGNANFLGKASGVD
Type: cell-based
Method: B-2. Action on Recombinant Guanylate Cyclase Reporter Cell Line
The cellular action of the compounds according to the invention is determined on a recombinant guanylate cyclase reporter cell line, as described in F. Wunder et al., Anal. Biochem. 339, 104-112 (2005).
For `CC1(C)C(=O)Nc2nc(-c3nn(Cc4ccccc4F)c4ncccc34)nc(NC3CCOC3)c21` (racemic) [Example 49, 2-[1-(2-fluorobenzyl)-1H-pyrazolo[3,4-b]pyridin-3-yl]-5,5-dimethyl-4-(tetrahydrofuran-3-ylamino)-5,7-dihydro-6H-pyrrolo[2,3-d]pyrimidin-6-one], the “MEC (minimal effective concentration)” value was 0.3 μm.
For `CC1(C)C(=O)Nc2nc(-c3nn(Cc4ccccc4F)c4ncccc34)nc(N3CCCCC3)c21` [Example 54, 2-[1-(2-fluorobenzyl)-1H-pyrazolo[3,4-b]pyridin-3-yl]-5,5-dimethyl-4-(piperidin-1-yl)-5,7-dihydro-6H-pyrrolo[2,3-d]pyrimidin-6-one], the “MEC (minimal effective concentration)” value was 0.03 μm.
In the case of `CC1(CNc2nc(-c3nn(Cc4ccccc4F)c4ncccc34)nc3c2C(C)(C)C(=O)N3)COC1` [Example 67, 2-[1-(2-fluorobenzyl)-1H-pyrazolo[3,4-b]pyridin-3-yl]-5,5-dimethyl-4-{[(3-methyloxetan-3-yl)methyl]amino}-5,7-dihydro-6H-pyrrolo[2,3-d]pyrimidin-6-one], the “MEC (minimal effective concentration)” value is reported as 0.03 μm.
For `CC1(C)C(=O)Nc2nc(-c3nn(Cc4ccccc4F)c4ncccc34)nc(NCc3ccc(F)cc3)c21` [Example 77, 4-[(4-fluorobenzyl)amino]-2-[1-(2-fluorobenzyl)-1H-pyrazolo[3,4-b]pyridin-3-yl]-5,5-dimethyl-5,7-dihydro-6H-pyrrolo[2,3-d]pyrimidin-6-one], the “MEC (minimal effective concentration)” value was 0.1 μm.
In the case of `C[C@H](Nc1nc(-c2nn(Cc3ccccc3F)c3ncccc23)nc2c1C(C)(C)C(=O)N2)C(N)=O` [Example 79, N2-{2-[1-(2-fluorobenzyl)-1H-pyrazolo[3,4-b]pyridin-3-yl]-5,5-dimethyl-6-oxo-6,7-dihydro-5H-pyrrolo[2,3-d]pyrimidin-4-yl}-L-alaninamide], the “MEC (minimal effective concentration)” value is reported as 0.1 μm.
`CC1(C)C(=O)Nc2nc(-c3nn(Cc4ccccc4F)c4ncccc34)nc(NCC3CCCC3)c21` [Example 80, 4-[(cyclopentylmethyl)amino]-2-[1-(2-fluorobenzyl)-1H-pyrazolo[3,4-b]pyridin-3-yl]-5,5-dimethyl-5,7-dihydro-6H-pyrrolo[2,3-d]pyrimidin-6-one] was tested, and the “MEC (minimal effective concentration)” value was 0.03 μm.
In the case of `CC1(C)C(=O)Nc2nc(-c3nn(Cc4ccccc4F)c4ncccc34)nc(N3CCNC(=O)C3)c21` [Example 82, 2-[1-(2-fluorobenzyl)-1H-pyrazolo[3,4-b]pyridin-3-yl]-5,5-dimethyl-4-(3-oxopiperazin-1-yl)-5,7-dihydro-6H-pyrrolo[2,3-d]pyrimidin-6-one], the “MEC (minimal effective concentration)” value is reported as 0.1 μm.
